We go through 31 compounds from patent US6908931B2, “Tetrahydroisoquinoline derivatives as melatonin MT2 antagonists” (Bristol-Myers Squibb Company, priority 2003, dated 2005).

pIC50: −log10 of the molar value. Bounds are passed on as bounds.

As a reminder, the pIC50 is the negative decadic logarithm of the IC50, by convention in mol/L.

In the first experiment the target is T1, human MT2 receptor (Homo sapiens, UniProt P49286).
T1 construct: melatonin MT1 and MT2 receptors cDNA were individually subcloned into pcDNA3 and introduced into NIH-3T3 cells using Lipofectamine; expressed in transfected cells
T1 sequence (P49286 1-362): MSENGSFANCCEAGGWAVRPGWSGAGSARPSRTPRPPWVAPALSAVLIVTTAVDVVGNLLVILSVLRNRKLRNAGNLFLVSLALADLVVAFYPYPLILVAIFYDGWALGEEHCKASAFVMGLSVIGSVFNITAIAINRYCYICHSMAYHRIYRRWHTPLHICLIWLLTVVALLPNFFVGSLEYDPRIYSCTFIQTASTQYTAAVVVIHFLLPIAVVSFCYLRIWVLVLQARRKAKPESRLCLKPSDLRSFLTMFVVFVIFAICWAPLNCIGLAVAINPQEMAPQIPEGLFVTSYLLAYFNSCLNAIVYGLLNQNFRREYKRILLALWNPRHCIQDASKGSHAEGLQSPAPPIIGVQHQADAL
As to the kind of experiment: Melatonin receptor binding assay (MT2), 2-[125I]-iodomelatonin.
Conditions: not given
As to the method:
Melatonin receptor binding assay.
Membrane homogenates: melatonin MT1 and MT2 receptors cDNA were individually subcloned into pcDNA3 and introduced into NIH-3T3 cells using Lipofectamine. […] For preparing membrane homogenates, pellets are thawed on ice, and re-suspended in TME buffer in the presence of 10 μg/ml aprotinin and leupeptin, and 100 μM phenylmethylsulfonylfluoride. The cells were then homogenized using a dounce homogenizer, and centrifuged. The resulting pellet was re-suspended with dounce homogenizer in TME (supplemented with the above protease inhibitors) and frozen. On the day of assay, a small aliquot was thawed on ice and re-suspended in the ice cold TME (1:50-1:100 v/v) and held on ice until assayed. Incubation is at 37° C. for 1 hour. Reaction is terminated by filtration. Filters were washed 3 times.
For `O=C(OCc1ccccc1)N1CCc2cc3c(cc2C1CCc1ccc(F)cc1)OCO3` (stereo not shown) [Example 100], the pIC50 was 6.00 to 7.00.

The same experiment, now with this note: membrane homogenates of NIH-3T3 cells expressing MT2; 2-[125I]-iodomelatonin 0.2 nM; 37° C., 1 hour; read-out: MT2 IC50.
For the compound `COc1cc2c(cc1OC)C(CCc1ccccc1)N(C(=O)c1cc(C(F)(F)F)cc(C(F)(F)F)c1)CC2` (stereo not shown) [Example 69], the negative-log IC50 (pIC50) is 6.00 to 7.00.
On to `COc1cc2c(cc1OC)C(CCc1ccccc1)N(C(=O)c1ccc(C(F)(F)F)cc1)CC2` (stereo not shown) [Example 70], for which the negative logarithm of the IC50 (pIC50) is 6.00 to 7.00.
For the compound `COc1ccc2c(c1)C(CC(c1ccccc1)c1ccccc1)N(C(=O)CC(C)(C)C)CC2` (stereo not shown) [Example 78], the negative-log IC50 (pIC50) was 6.00 to 7.00.
On the same count and under the same terms, in the case of `COc1ccc(C(=O)N2CCc3ccc(OC)cc3C2CC(c2ccccc2)c2ccccc2)cc1` (stereo not shown) [Example 79] it was 6.00 to 7.00.
The same measure, in the same setting: the value for `COc1ccc2c(c1)C(CC(c1ccccc1)c1ccccc1)N(C(=O)c1cccc([N+](=O)[O-])c1)CC2` (stereo not shown) [Example 80] was 6.00 to 7.00.
On to `COc1ccc2c(c1)C(CC(c1ccccc1)c1ccccc1)N(C(=O)c1ccc([N+](=O)[O-])cc1)CC2` (stereo not shown) [Example 81], for which the pIC50 was 6.00 to 7.00.
The same measure, in the same setting: in the case of `COc1ccc2c(c1)C(CC(c1ccccc1)c1ccccc1)N(C(=O)c1ccc(C)cc1)CC2` (stereo not shown) [Example 82] it was 6.00 to 7.00.
On the same count and under the same terms, in the case of `COc1ccc2c(c1)C(CC(c1ccccc1)c1ccccc1)N(C(=O)c1cc(C(F)(F)F)cc(C(F)(F)F)c1)CC2` (stereo not shown) [Example 83] it was 6.00 to 7.00.
The same measure, in the same setting: in the case of `COc1cc2c(cc1OC)C(CC(c1ccccc1)c1ccc(Cl)cc1)N(C(C)=O)CC2` (stereo not shown) [Example 84] it was greater than 7.00; in that of `COc1cc2c(cc1OC)C(CC(c1ccc(Cl)cc1)c1ccc(Cl)cc1)N(C(C)=O)CC2` (stereo not shown) [Example 85], greater than 7.00.
On to `COc1cccc(CCC2c3cc(OC)c(OC)cc3CCN2C(C)=O)c1` (stereo not shown) [Example 86], for which the pIC50 is greater than 7.00.
Take `CCC(=O)N1CCc2cc(OC)c(OC)cc2C1CCc1cccc(OC)c1` (stereo not shown) [Example 87]: the pIC50 was greater than 7.00.
Take `CCNC(=O)N1CCc2cc(OC)c(OC)cc2C1CCc1cccc(OC)c1` (stereo not shown) [Example 88]: the pIC50 is greater than 7.00.
Still for that read-out and setting: the value for `COc1ccc2c(c1)C(CCc1ccc(F)cc1)N(C(C)=O)CC2` (stereo not shown) [Example 90] was greater than 7.00; that for `CC(=O)N1CCc2cc3c(cc2C1CC(c1ccccc1)c1ccccc1)OCO3` (stereo not shown) [Example 91] was 6.00 to 7.00.
For the compound `O=C(c1ccccc1)N1CCc2cc3c(cc2C1CCc1ccc(F)cc1)OCO3` (stereo not shown) [Example 93], the pIC50 was 6.00 to 7.00.
On the same count and under the same terms, in the case of `CC(=O)N1CCc2cc3c(cc2C1CCc1ccc(F)cc1)OCO3` (stereo not shown) [Example 94] it was 6.00 to 7.00; in that of `O=C(C1CC1)N1CCc2cc3c(cc2C1CCc1ccc(F)cc1)OCO3` (stereo not shown) [Example 95], greater than 7.00.
As for `COCC(=O)N1CCc2cc3c(cc2C1CCc1ccc(F)cc1)OCO3` (stereo not shown) [Example 96], the pIC50 was greater than 7.00.
Turning to `O=C(CCl)N1CCc2cc3c(cc2C1CCc1ccc(F)cc1)OCO3` (stereo not shown) [Example 98], the pIC50 is greater than 7.00.
Same read-out and setting: in the case of `CCCC(=O)N1CCc2cc3c(cc2C1CCc1ccc(F)cc1)OCO3` (stereo not shown) [Example 101] it was greater than 7.00; in that of `O=C(C1CCCC1)N1CCc2cc3c(cc2C1CCc1ccc(F)cc1)OCO3` (stereo not shown) [Example 102], greater than 7.00; in that of `O=C(c1ccno1)N1CCc2cc3c(cc2C1CCc1ccc(F)cc1)OCO3` (stereo not shown) [Example 103], greater than 7.00.
On to `CC(=O)OCC(=O)N1CCc2cc3c(cc2C1CCc1ccc(F)cc1)OCO3` (stereo not shown) [Example 104], for which the negative-log IC50 (pIC50) is 6.00 to 7.00.
On the same count and under the same terms, in the case of `CCC(=O)N1CCc2cc3c(cc2C1CCc1ccc(F)cc1)OCO3` (stereo not shown) [Example 105] it was greater than 7.00; in that of `CC(C)COC(=O)N1CCc2cc3c(cc2C1CCc1ccc(F)cc1)OCO3` (stereo not shown) [Example 106], 6.00 to 7.00.
On the same count and under the same terms, in the case of `CC(C)(C)CC(=O)N1CCc2cc3c(cc2C1CCc1ccc(F)cc1)OCO3` (stereo not shown) [Example 107] it was 6.00 to 7.00; in that of `O=C(C=Cc1ccccc1)N1CCc2cc3c(cc2C1CCc1ccc(F)cc1)OCO3` (stereo not shown) [Example 108], 6.00 to 7.00; in that of `COc1ccc2c(c1)C(CCc1ccc(F)cc1)N(C(=O)C1CC1)CC2` (stereo not shown) [Example 109], greater than 7.00.
For `COCC(=O)N1CCc2ccc(OC)cc2C1CCc1ccc(F)cc1` (stereo not shown) [Example 110], the pIC50 is greater than 7.00.
